The record followed here is patent US6951857B2, “6-Azauracil derivatives as IL-5 inhibitors” (priority 1997, dated 2005).

In the first series the test system is IL-5 production. Description: In vitro inhibition of IL-5 production in human blood. The series is classed as cell-based. The settings on record: test dose 1×10^−6 M; human whole blood stimulated with phytohemagglutinin, 48 hours, ELISA. The procedure: In Vitro Inhibition of IL-5 Production in Human Blood
Human Whole Blood Stimulation
Peripheral blood from healthy male donors was drawn into heparinized syringes (12.5 U heparin/ml). Blood samples were three-fold diluted in RMPI 1640 medium (Life Technologies, Belgium) supplemented with 2 mM L-glutamine, 100 U/ml penicillin and 100 μg/ml streptomycin, and 300 μl fractions were distributed in 24-well multidisc plates. Blood samples were preincubated (60 minutes at 37° C.) in a humidified 6% CO2-atmosphere with 100 μl of drug solvent (final concentration 0.02% dimethylsulfoxide in RPMI 1640) or with 100 μl of an appropriate dose of test compound before being stimulated by the addition of 100 μl of phytohemagglutinin HA17 (Murex, UK) at a final concentration of 2 μg/ml. After 48 hours, cell-free supernatant fluids were collected by centrifugation and stored at −70° C. until tested for the presence of IL-5.
IL-5 measurements were conducted as described in Van Wauwe et al. (1996, Inflamm Res, 45, 357-363) on page 358 using ELISA.
Table 8 lists the percentage inhibition of IL-5 production (column “% inhibition”) at a test dose of 1×10^−6 M, or in case the percentage inhibition is marked with an “*” 1×10^−5 M, for the compounds of the present invention including compounds of formula (I) which have been disclosed in U.S. Pat. No. 4,631,278 (Ref. A) or U.S. Pat. No. 4,767,760 (Ref: B) as summarized in table 7.
Turning to `CON(C)C(=O)C(c1ccc(Cl)cc1)c1ccc(-n2ncc(=O)[nH]c2=O)cc1Cl` (racemic) [1.6, (±)-2-chloro-α-(4-chlorophenyl)-N-methoxy-N-methyl-4-(4,5-dihydro-3,5-dioxo-1,2,4-triazin-2(3H)-yl)benzeneacetamide], 1 µM produced 49% inhibition.
On the same count and under the same terms, the figure for `CC(C#N)(c1ccc(Cl)c(C(F)(F)F)c1)c1c(Cl)cc(-n2ncc(=O)[nH]c2=O)cc1Cl` (racemic) [1.7, (±)-2,6-dichloro-α-[4-chloro-3-(trifluoromethyl)phenyl]-4-(4,5-dihydro-3,5-dioxo-1,2,4-triazin-2(3H)-yl)-α-methylbenzeneacetonitrile] is 92%; for `CC(C#N)(c1ccc(Cl)cc1)c1c(Cl)cc(-n2ncc(=O)[nH]c2=O)cc1Cl` (racemic) [1.11, (±)-2,6-dichloro-α-(4-chlorophenyl)-4-(4,5-dihydro-3,5-dioxo-1,2,4-triazin-2(3H)-yl)-α-methylbenzeneacetonitrile] it is 12%; for `CNC(=O)C(C)(c1ccc(Cl)cc1)c1ccc(-n2ncc(=O)[nH]c2=O)cc1Cl` (racemic) [1.14, (±)-2-chloro-α-(4-chlorophenyl)-4-(4,5-dihydro-3,5-dioxo-1,2,4-triazin-2(3H)-yl)-α,N-dimethylbenzeneacetamide] it is 9%.
Same read-out and setting: for `O=C(c1nc2ccccc2s1)C(c1ccc(Cl)cc1)c1ccc(-n2ncc(=O)[nH]c2=O)cc1Cl` (racemic) [1.20, (±)-2-[4-[2-(2-benzothiazolyl)-1-(4-chlorophenyl)-2-oxoethyl]-3-chlorophenyl]-1,2,4-triazin-3,5(2H,4H)-dione] the value was 80%.
Same read-out and setting: the figure for `CC(C(N)=S)(c1ccc(Cl)cc1)c1ccc(-n2ncc(=O)[nH]c2=O)cc1Cl` (racemic) [1.21, (±)-2-chloro-α-(4-chlorophenyl)-α-methyl-4-(4,5-dihydro-3,5-dioxo-1,2,4-triazin-2(3H)-yl)benzeneethanethioamide] is 33%; for `CC(C#N)(c1ccc(Cl)c(C(F)(F)F)c1)c1cccc(-n2ncc(=O)[nH]c2=O)c1Cl` (racemic) [1.36, (±)-4-chloro-α-[2-chloro-3-(4,5-dihydro-3,5-dioxo-1,2,4-triazin-2(3H)-yl)phenyl]-α-methyl-3-(trifluoromethyl)benzeneacetonitrile] it is 44%; for `CN(C)CCCC(C#N)(c1ccc(Cl)cc1)c1ccc(-n2ncc(=O)[nH]c2=O)cc1Cl` (racemic) [1.58, (±)-2-chloro-α-(4-chlorophenyl)-4-(4,5-dihydro-3,5-dioxo-1,2,4-triazin-2(3H)-yl)-α-[3-(dimethylamino)propyl]-benzeneacetonitrile] it is 28%.
Turning to `CC(C#N)(c1ccc(Cl)c(C(F)(F)F)c1)c1cc(-n2ncc(=O)[nH]c2=O)ccc1Cl` (stereo not shown) [1.35], the inhibition (in general, the share of the control response that was lost under treatment) at 1 µM was 33%.
On the same count and under the same terms, the figure for `N#CC(c1ccc(Cl)c(C(F)(F)F)c1)c1cc(-n2ncc(=O)[nH]c2=O)ccc1Cl` (stereo not shown) [1.37] is 12%; for `N#CC(c1ccc(Cl)cc1)c1ccc(-n2ncc(=O)[nH]c2=O)cc1` (stereo not drawn) [1.41, α-(4-chlorophenyl)-4-(4,5-dihydro-3,5-dioxo-1,2,4-triazin-2(3H)-yl) benzeneacetonitrile] it is 13%.

Tested on in another series: not given
Experiment: not given
Conditions: not given
Turning to `CN(C)CCCC(C#N)(c1ccc(Cl)cc1)c1ccc(-n2ncc(=O)[nH]c2=O)cc1Cl` (racemic) [1.58, (±)-2-chloro-α-(4-chlorophenyl)-4-(4,5-dihydro-3,5-dioxo-1,2,4-triazin-2(3H)-yl)-α-[3-(dimethylamino)propyl]-benzeneacetonitrile], the melting point – broadly, the temperature, or range, at which the solid turns liquid – was 140 °C.
Same read-out and setting: the figure for `N#CC(c1ccc(Cl)cc1)c1ccc(-n2ncc(=O)[nH]c2=O)cc1` (stereo not drawn) [1.41, α-(4-chlorophenyl)-4-(4,5-dihydro-3,5-dioxo-1,2,4-triazin-2(3H)-yl) benzeneacetonitrile] is 206.3 °C.
